Data set [1] concerns the target T1, human NPY Y5 receptor (Homo sapiens, UniProt Q15761).
T1 construct: expressed in transfected cells; membranes used
T1 sequence (Q15761 1-445): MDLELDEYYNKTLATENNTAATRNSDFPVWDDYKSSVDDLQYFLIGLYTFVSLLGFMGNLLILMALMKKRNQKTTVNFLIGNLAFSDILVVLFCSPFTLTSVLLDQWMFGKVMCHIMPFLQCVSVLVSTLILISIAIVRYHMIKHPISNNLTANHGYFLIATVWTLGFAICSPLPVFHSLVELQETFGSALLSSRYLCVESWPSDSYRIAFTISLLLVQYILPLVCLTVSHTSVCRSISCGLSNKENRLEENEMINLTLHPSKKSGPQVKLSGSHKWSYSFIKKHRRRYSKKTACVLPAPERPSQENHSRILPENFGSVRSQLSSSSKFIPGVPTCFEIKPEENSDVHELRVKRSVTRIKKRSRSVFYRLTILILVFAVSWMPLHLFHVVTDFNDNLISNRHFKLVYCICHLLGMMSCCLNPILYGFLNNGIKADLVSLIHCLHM
In words: Affinity for NPY Y5 receptor ([125I] peptide YY binding, CHO cell membranes). The settings on record: [125I] peptide YY 60 pM, 25° C., 2 hours. An excerpt: cDNA sequence encoding a human NPY Y5 receptor (WO96/16542) was cloned in a vector (pME18S, Takebe et al. Mol. Cell. Biol. 8, 8957). The obtained expression vector was transfected into CHO cells as a host by using Lipofect AMINE reagent (Trademark, Gico BRL Co., Ltd.) according to the instruction manual. The cells that stably express NPY Y5 receptor were obtained.
The membranes prepared from the CHO cells expressing NPY Y5 receptor, the compound of the present invention and 30,000 cpm [^125I] peptide YY (60 pM of final concentration: Amersham) were incubated in the assay buffer (20 mM HEPES-Hanks buffer containing 0.1% bovine serum albumin, pH 7.4) at 25° C. for 2 hours, and then the membrane was filtered from the mixture through a glassfilter (GF/C) presoaked with 1% polyethyleneimine. After washing with 50 mM Tris-HCl buffer (pH 7.4), radioactivity retained on the filters was quantified with a gamma counter. Nonspecific binding was defined as the amount of radioactivity bound to the membranes after incubation in the presence of 200 nM of peptide YY. The 50% inhibitory concentration of the test compound against the specific peptide YY binding (IC50 value) was calculated (Inui, A. et al. Endocrinology 131, 2090-2096 (1992)).

Data set [2] is described as follows: Transportability through the blood-brain barrier (brain Kp) in mice. The class given is in vivo. Particulars: male, Jcl;C57BL/6J, mouse, brain (relative to plasma), intravenous administration, without cyclosporin A, read-out: brain Kp value (KpCont.), blood-brain partition coefficient. On the procedure: (§1) Transportability of the compounds of the present invention through the blood-brain barrier (blood-brain partition coefficient; Kp) in mice (Jcl;C57BL/6J mice, ♂, 7 weeks) was defined from the difference in concentration of the compounds between in plasma and in brain after intravenous administration of the compounds (0.5 mg/2 mIAg). The brain Kp value of Compound (1-72) (KpCont.) was 1.29 showing high transportability through the blood-brain barrier.

Data set [3] concerns the target T2, P-gp (Mus musculus, UniProt P21447).
T2 construct: effectively excreted through P-gp from the brain to vessels; from tissue; host or cells: brain / blood-brain barrier of living Jcl;C57BL/6J mice
In words: Potential for drug-drug interactions through P-gp in vivo (Kp with or without cyclosporin A). The settings on record: mice, with versus without cyclosporin A (20 mg/kg). On the procedure: as §1
(§2) To examine the potential for drug-drug interactions through P-gp in vivo, the Kp values of compounds of the present invention with (KpCSA) or without (KpCont.) cyclosporin A (20 mg/kg), a P-gp inhibitor, were calculated. The KpCSA value of Compound (I-72) was 1.14, and the calculated KpCSA/KpCont. ratio was 0.9.
(§3) On the other hand the potential for drug-drug interactions through P-pg of amide compound B which has similar structure of Compound (I-72) was also examined in mice. The KpCont. and KpCSA were 0.04 and 0.84, respectively.

Data set [4] relates to T3, P-gp.
T3 construct: effectively excreted through P-gp from the brain to vessels; from tissue; host or cells: brain / blood-brain barrier of living Jcl;C57BL/6J mice
Described as above. The settings on record: male, Jcl;C57BL/6J, mouse, brain (relative to plasma); mice, intravenous administration, with cyclosporin A (20 mg/kg), a P-gp inhibitor; read-out: KpCSA value. On the procedure:
as §1, §2, §3

In general, IC50 refers to the concentration that inhibits the measured activity by half. Low values mean higher potency, high ones lower potency. The term melting point denotes the temperature, or range, at which the solid turns liquid.

Molecules are shown by their SMILES.

T2 sequence (P21447 whole entry): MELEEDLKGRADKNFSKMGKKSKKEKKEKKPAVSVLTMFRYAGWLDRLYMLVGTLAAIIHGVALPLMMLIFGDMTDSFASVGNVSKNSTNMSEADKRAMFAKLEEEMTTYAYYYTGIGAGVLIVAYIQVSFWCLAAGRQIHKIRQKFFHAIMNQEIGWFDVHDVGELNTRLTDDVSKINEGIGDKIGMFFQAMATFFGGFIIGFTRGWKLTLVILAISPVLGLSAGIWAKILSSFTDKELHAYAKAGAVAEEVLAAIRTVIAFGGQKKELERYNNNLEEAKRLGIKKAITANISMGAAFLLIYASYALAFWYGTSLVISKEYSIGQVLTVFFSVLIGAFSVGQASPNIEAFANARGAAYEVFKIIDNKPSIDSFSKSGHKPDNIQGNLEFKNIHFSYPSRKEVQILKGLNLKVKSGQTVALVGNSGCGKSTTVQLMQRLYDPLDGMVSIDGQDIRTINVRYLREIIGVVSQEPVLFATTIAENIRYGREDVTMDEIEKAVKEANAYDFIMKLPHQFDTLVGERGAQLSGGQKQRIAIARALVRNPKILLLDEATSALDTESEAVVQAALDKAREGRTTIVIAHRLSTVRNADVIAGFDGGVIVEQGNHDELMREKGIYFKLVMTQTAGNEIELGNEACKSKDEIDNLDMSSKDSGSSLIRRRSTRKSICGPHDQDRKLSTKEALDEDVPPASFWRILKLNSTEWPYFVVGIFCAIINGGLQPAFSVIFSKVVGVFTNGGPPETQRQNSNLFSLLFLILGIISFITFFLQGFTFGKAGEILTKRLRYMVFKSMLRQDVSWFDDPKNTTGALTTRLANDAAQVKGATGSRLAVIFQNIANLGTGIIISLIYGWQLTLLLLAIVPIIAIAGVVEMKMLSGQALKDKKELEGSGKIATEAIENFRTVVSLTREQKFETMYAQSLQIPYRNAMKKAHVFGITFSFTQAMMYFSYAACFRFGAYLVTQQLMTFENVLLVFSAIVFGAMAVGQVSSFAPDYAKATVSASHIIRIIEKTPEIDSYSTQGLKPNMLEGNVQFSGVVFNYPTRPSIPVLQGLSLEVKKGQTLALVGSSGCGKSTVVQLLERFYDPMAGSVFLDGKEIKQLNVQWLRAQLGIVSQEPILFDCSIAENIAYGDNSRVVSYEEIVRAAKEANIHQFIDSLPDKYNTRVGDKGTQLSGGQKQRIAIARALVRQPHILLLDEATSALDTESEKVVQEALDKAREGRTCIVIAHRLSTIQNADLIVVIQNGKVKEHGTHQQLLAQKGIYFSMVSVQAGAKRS

In data set [1], `CC(C)S(=O)(=O)NC[C@H]1CC[C@H](Nc2ccc(C(F)(F)F)cn2)CC1` [Ij-1] showed an IC50 of 0.7 nM. Compound `CC(C)(C)S(=O)(=O)NC[C@H]1CC[C@H](Nc2nc3ccc(C(F)(F)F)cc3s2)CC1` [Ij-66] displayed an IC50 in data set [1] of 0.39 nM. The compound `CC(C)S(=O)(=O)NC[C@H]1CC[C@H](Nc2ccc(OC3CCCC3)nn2)CC1` [Ij-52] returned an IC50 in data set [1] of 0.27 nM. In turn, `CC(C)(C)S(=O)(=O)NC[C@H]1CC[C@H](Nc2ccc3ccccc3n2)CC1` [Ij-59] returned an IC50 in data set [1] of 2.5 nM. Same read-out and setting: in the case of `CCS(=O)(=O)N[C@H]1CC[C@H](CNc2ccc(S(=O)(=O)c3ccc(F)cc3)cc2)CC1` [Ii-34] it was 11 nM.

As to `C[C@@H]1CN(c2ccc(NC[C@H]3CC[C@H](NS(=O)(=O)C(C)(C)C)CC3)cc2)C[C@H](C)O1` [Compound I-72], the melting point was 147 to 149 °C. Moreover, in data set [2], the Kp is 1.29. In data set [3], the KpCSA/KpCont. ratio was found to be 0.9. Also, the Kp in data set [4] was determined as 1.14. As for `C[C@@H]1CN(c2ccc(NC(=O)[C@H]3CC[C@H](NS(=O)(=O)C(C)(C)C)CC3)cc2)C[C@H](C)O1` [compound B, reference compound], the Kp in data set [2] amounted to 0.04; in data set [4], 0.84. Moreover, the KpCSA/KpCont. ratio in data set [3] is given as 20.5.

With `CCCn1c(=O)oc2cc(NC[C@H]3CC[C@H](NS(=O)(=O)CC)CC3)ccc21` [Ii-16], the IC50 in data set [1] was 2.5 nM.

Consider `CCS(=O)(=O)N[C@H]1CC[C@H](CNc2cc(-c3ccccc3)on2)CC1` [Ii-44], for which the IC50 in data set [1] is 3.4 nM.

Regarding `CC1CC(C)CN(c2cccc(NC[C@H]3CC[C@H](NS(=O)(=O)C(C)(C)C)CC3)c2)C1` (stereo partly drawn) [Ii-1], the IC50 in data set [1] is 0.1 nM.

Source of the values: patent publication US20100063027A1, “Amine Derivative Having NPY Y5 Receptor Antagonistic Activity” (SHIONOGI & CO., LTD., priority 2006, published 2010).
